These are literature values, as cited in patent publication US7250518B2, “Nicotinamide acids, amides, and their mimetics active as inhibitors of PDE4 isozymes” (Pfizer Inc., priority 2001, dated 2007).

Like-named read-outs stand apart in the source and are kept apart here. Bounds are passed on as bounds.

One data set has as its system epidermal basal cells. The conditions noted are these: primary culture.
The test system of data set [1] is keratomed psoriatic epidermis. The conditions noted are these: over controls.
The next data set concerns psoriatic lesions. To be noted: two double-blind studies versus vehicle.
For data set [2] the following is noted: COPD patients, 15 mg b.i.d., week 6.
For data set [3] the following is noted: oral 5, 10, and 15 mg b.id., week 2.
Data set [4] has as its system high-affinity rolipram binding site (Sr).
In the next data set the test system is inflammatory parameters. To be noted: topical, bilaterally over eight days, twenty patients.
Data set [5] concerns lipopolysaccharide-induced mesenteric blood flow fall. To be noted: inhibiting lipopolysaccharide-induced mesenteric blood flow fall.
Data set [6] relates to human peripheral blood mononuclear cells (HPBM). The conditions noted are these: normal patients and subjects with atopic dermatitis.
The subject of data set [7] is bone mineral density of femurs. The conditions noted are these: serial oral administrations.
In data set [8] the test system is antigen-induced bronchospasm. To be noted: rat.
Another data set deals with rhinorrhea. To be noted: antigen-challenged pig.
A further data set has as its system canine tracheal PDE4. To be noted: at 100 nM.
In data set [9] the test system is lipopolysaccharide-induced bowel erythrocyte extravasation. To be noted: rats, i.p. 3× pretreatment.
Another data set relates to TNF production. To be noted: read-out: IC50 as an inhibitor of TNF production.
In data set [10] the test system is seratonin-induced bronchoconstriction. The conditions noted are these: dog.
In data set [11] the test system is histamine- and antigen-induced bronchoconstriction, eosinophilia, AHR. The conditions noted are these: guinea-pig.
For data set [12], the system named is antigen-induced bronchoconstriction. The conditions noted are these: guinea-pig.
Data set [13] has as its system TNF release and lymphocyte proliferation. To be noted: oral dose of 300 mg.
Data set [14] deals with late reactions to inhaled allergen. The conditions noted are these: 9.5 days oral, 15 and 30 mg, bronchial asthma patients.
The conditions of data set [15]: in vivo.
Another data set relates to guinea-pig lung PDE4. To be noted: read-out: IC50 against guinea-pig lung PDE4.
The subject of data set [16] is PHA stimulated atopic dermatitis PBMC. The conditions noted are these: read-out: IC50, inhibition of PHA stimulated atopic dermatitis PBMC proliferation.
Data set [17] concerns PHA stimulated normal PBMC. To be noted: read-out: IC50, inhibition of PHA stimulated normal PBMC proliferation.
Data set [18] deals with croton oil-induced ear inflammation. The conditions noted are these: mouse.
Data set [19] deals with collagen II induced arthritis.
Data set [20] concerns dextran sulfate induced colitis. The conditions noted are these: rat.
For data set [21], the system named is T-cell mediated hepatic failure.
Data set [22] deals with experimental allergic encephalomyelitis. To be noted: marmoset.
Data set [23] relates to chronic relapsing experimental allergic encephalomyelitis. The conditions noted are these: SJL mice.
The test system of another data set is TNF-α and IL-6 levels. To be noted: 1 mg/kg/hr over 24 hours.
Data set [24] deals with bronchoconstriction, BAL eosinophilia, AHR. To be noted: in vivo.
In data set [25] the test system is in vitro guinea-pig models of asthma. The conditions noted are these: read-out: IC50 in standard in vitro guinea-pig models of asthma.
Another data set concerns PDE4 in U937 cells. To be noted: read-out: IC50 as PDE4 inhibitor in U937 cells.
The conditions of data set [26]: rat.
For data set [27] the following is noted: rat. This is another data set of the same source.
For data set [28] the following is noted: 54 subjects, doses up to 400 mg.
Data set [29] relates to antigen-induced eosinophilia. The conditions noted are these: rat.
The subject of a further data set is rheumatoid arthritis. To be noted: 35 patients, t.i.d., placebo-controlled.
The test system of data set [30] is antigen-induced lung eosinophilia, BAL eosinophilia, AHR. To be noted: guinea-pig.

Turning to `COc1ccc(CC2CNC(=O)N2)cc1OC1CCCC1` (centres unmarked) [Ro 20-1724], the “Increase in cAMP concentrations” value in the data set with epidermal basal cells was “three-fold”. Moreover, in data set [1], the “Increase in cAMP concentration” value is reported as 1395%. Moreover, in the data set with psoriatic lesions, the “Effect on psoriatic lesions” value is given as “improve psoriatic lesions without adverse systemic or cutaneous effects”.
As for `COc1ccc([C@]2(C#N)CC[C@@H](C(=O)O)CC2)cc1OC1CCCC1` [SB-207,499], in data set [2], the “Improvement in trough FEV1” value is given as 11% and the “Maximum mean difference in trough FEV1 compared with placebo” value was 160 mL. Also, the “Change in trough FEV1 from placebo” value in data set [3] is on record as “significant increases”. Also, in data set [4], the “Affinity at the Sr” value is listed as “comparatively low affinity”.
As for `COc1ccc(C2CNC(=O)NC2)cc1O[C@H]1C[C@@H]2CC[C@H]1C2` [atizoram], the “Effect on inflammatory parameters” value with inflammatory parameters was “effectively inhibit all of the inflammatory parameters tested”.
Regarding `CCCCn1c(=O)c2c(ncn2CC(C)=O)n(CCCC)c1=O` [denbufylline], the “Potency relative to pentoxifylline” value in data set [5] is on record as 100 fold. Besides, the “Inhibition of the proliferation of HPBM” value in data set [6] is given as “concentration-related inhibition”. In addition, the “Effect on bone mineral density of femurs” value in data set [7] was “inhibit the decrease in the bone mineral density”.
For the compound `COc1ccc(CNc2c(C)noc2C)cc1OC1CCCC1` [RPR-132294], in data set [8], the “Inhibition of antigen-induced bronchospasm” value is reported as “activity”.
Turning to `CCCn1c(=O)c2c(C)nc(CC)n2c2nc(OC)ccc21` [Example D-22888], the Effect on rhinorrhea result in the data set with rhinorrhea is given as “inhibit rhinorrhea”.
Consider `COc1ccc(C(=O)Cc2c(Cl)c[n+]([O-])cc2Cl)c2c1OCCCCO2` [Formula (0.0.49)], for which, in the data set on canine tracheal PDE4, the “Inhibition of canine tracheal PDE4” value is listed as “almost complete inhibition”.
For the compound `CCCCn1c(=O)c2c(ncn2CC(C)=O)n(CCCC)c1=O` [debufylline], the “Effect on lipopolysaccharide-induced bowel erythrocyte extravasation” value in data set [9] is “reduces”.
For `COc1ccc(C(CC(N)=O)N2C(=O)c3ccccc3C2=O)cc1OC1CCCC1` (centres unmarked) [Formula (0.0.32)], the IC50 in the data set with PDE4 (read-out: IC50 as an inhibitor of PDE4) is 0.042 nM; in the data set on TNF production, 130 nM.
Consider `COc1ccc(/C(C)=N/OC(N)=O)cc1OC1CCCC1` [WAY-PDA-641], for which the “Inhibition of seratonin-induced bronchoconstriction” value in data set [10] was “active”.
With `O=c1c2c(ncn2Cc2cccnc2)c2cccnc2n1-c1ccccc1` [KF19514], in data set [11], the “Inhibition of histamine- and antigen-induced bronchoconstriction, PAF- and antigen-induced eosinophilia, AHR, bronchospasm” value is “activity”.
On to `CCNc1ncn(Cc2ccc(OC)c(OC3CCCC3)c2)c2nc(C(C)C)nc1-2` [Example V-11294A], for which the “Inhibition of antigen-induced bronchoconstriction” value in [12] is “active”. Moreover, in [13], the “Effect on LPS-stimulated ex vivo TNF release and PHA induced lymphocyte proliferation” value was “effective in reducing TNF levels and lymphocyte proliferation”.
In the case of `COc1ccc([C@H](Cc2ccncc2)c2ccccc2)cc1OC1CCCC1` [CDP840], the “Effect on late reactions to inhaled allergen” value in [14] is “suppression of late reactions to inhaled allergen”. For the same compound, the “Emesis, nausea and vomiting” value in [15] is “without any adverse events of nausea or headache”. Besides, the “Affinity at the Sr” value in data set [4] is given as “comparatively low affinity”.
For `CCOc1cc2cc(CO)c(CO)c(-c3ccnc(-n4nc(-c5cccnc5)c5ccccc5c4=O)c3)c2cc1OCC` [Example T-2585], in the data set on guinea-pig lung PDE4, the IC50 was 0.13 nM.
Regarding `COc1ccc(C2CNC(=O)C2)cc1OC1CCCC1` (centres unmarked) [rolipram], the IC50 in [16] is 280 nM. The IC50 in data set [17] is 2600 nM. The “Topical dose inhibiting croton oil-induced ear inflammation” value in data set [18] is ≥ 0.03 mg per ear. The “Effect on appearance of arthritic symptoms” value in data set [19] (2 mg/kg twice daily for five days before onset of arthritis) is recorded as “significantly delayed the appearance of arthritic symptoms”. For the same compound, the “Effect on development of the disease” value in data set [19] (3 mg/kg twice daily when arthritis was apparent) was “progression of severity was halted”. The “Inhibition of the proliferation of HPBM” value in data set [6] is reported as “concentration-related inhibition”. Also, the “Effect in dextran sulfate induced colitis” value in data set [20] is reported as “beneficial effects comparable to prednisolone”. For the same compound, the “Effect on lipopolysaccharide-induced bowel erythrocyte extravasation” value in [9] is given as “reduces”. In [21] (0.1 to 10 mg/kg i.p.), the IL-10 levels result was “significantly elevates”; the “Plasma activities of liver enzymes ALT, AST, and SDH” value is given as “dose-dependently inhibited”. Besides, the “Plasma TNF-α and INF-γ concentrations” value in data set [21] (0.1 to 10 mg/kg i.p. 30 minutes before concanavalin A or staphylococcal enterotoxin B) is “significantly reduce”. In addition, in data set [22], the “Effect on clinical signs” value is on record as “suppress the appearance of clinical signs”. The “Effect on clinical signs and pathological changes” value in [23] was “ameliorates clinical signs and pathological changes”.
For `CC(=O)CCCCn1c(=O)c2c(ncn2C)n(C)c1=O` [pentoxifylline], in the data set with TNF-α and IL-6 levels, the IL-6 levels entry is “significantly increased” and the TNF-α levels result is on record as “significantly lowered”. Moreover, the “Effect on lipopolysaccharide-induced bowel erythrocyte extravasation” value in [9] is given as “reduces”.
Regarding `COc1ccc(-c2nc3cnccc3o2)c2c1OC1(CCCC1)C2` [Formula (0.0.48)], in the data set with PDE4 (read-out: IC50 as PDE4 inhibitor), the IC50 was 2.5 nM.
Consider `Nc1nc2c([nH]1)c(=O)n(CC1CC1)c(=O)n2CC1CC1` [BRL-61,063], for which the “Emesis, nausea and vomiting” value in [15] is “adverse events of nausea and vomiting”.
For `CCCn1c(=O)c2[nH]cnc2n(-c2ccc(Cl)cc2)c1=O` [LAS-31025], the “Inhibition of antigen-induced bronchoconstriction” value in data set [12] was “active”.
For `CCCn1c(=O)c2[nH]cnc2n(-c2ccc(Cl)cc2)c1=O` [LAS31025], in data set [20], the “Effect in dextran sulfate induced colitis” value is “beneficial effects comparable to prednisolone”.
In the case of `CCOc1cc2cc(CO)c(CO)c(-c3ccn(CCOC)c(=O)c3)c2cc1OCC` [Example T-440], in data set [24], the “Inhibition of early and late phase bronchoconstriction, BAL eosinophilia, ozone-induced AHR and airway epithelial injury” value is “activity”.
On to `O=C(Nc1c(Cl)cncc1Cl)c1ccc(OC(F)F)c(OCC2CC2)c1` [Roflumilast], for which the IC50 in data set [25] is 3.5 nM.
On to `O=C(Nc1c(Cl)cncc1Cl)C(=O)c1cn(Cc2ccc(F)cc2)c2ccc(O)cc12` [AWD-12,281], for which, in the data set with allergic rhinitis, the “Activity in a rat model of allergic rhinitis” value was “active”.
For `O=c1c2cccnc2n(-c2cccc([N+](=O)[O-])c2)c(=O)n1Cc1ccncc1` [RS-23,544], the “Emesis, nausea and vomiting” value in data set [15] was “elicit emesis”. In data set [4], the “Affinity at the Sr” value is given as “high affinity”.
For `Cc1cc2c3c(c1)C(c1ccccc1)=N[C@@H](NC(=O)c1ccncc1)C(=O)N3CC2` [CI-1018], the IC50 in the data set on PDE4 in U937 cells is 1100 nM. Further, the Oral bioavailability in data set [26] is 57%. In addition, the “ED50, oral potency” value in data set [27] is listed as 5 mg/kg. Besides, the Adverse events entry in data set [28] is recorded as “no adverse events”. Further, in [29], the “Inhibition of antigen-induced eosinophilia” value was “active”.
On to `COc1ccc(C2CNC(=O)NC2)cc1O[C@H]1C[C@@H]2CC[C@H]1C2` [CP-80,633], for which the “Emesis, nausea and vomiting” value in data set [15] was “elicit emesis”. Moreover, the “Affinity at the Sr” value in data set [4] is on record as “high affinity”.
For the compound `O=c1c2[nH]cnc2c2cccnc2n1-c1ccccc1` [KF17625], in data set [11], the “Inhibition of histamine- and antigen-induced bronchoconstriction, PAF- and antigen-induced eosinophilia, AHR, bronchospasm” value is “activity”.
As for `COc1ccc(C(=O)Nc2c(Cl)cncc2Cl)cc1OC1CCCC1` [RP73401], the “Clinical effect in rheumatoid arthritis” value with rheumatoid arthritis is listed as “positive trend towards clinical improvement”.
Turning to `COc1ccc(C(=O)Nc2c(Cl)cncc2Cl)cc1OC1CCCC1` [RP-73,401], the “Inhibition of antigen-induced lung and BAL eosinophilia, EPO, PAF- and ozone-induced AHR, IL-5 induced pleural eosinophila” value in [30] was “active”. Moreover, in [15], the “Emesis, nausea and vomiting” value is “elicit emesis”. The “Affinity at the Sr” value in data set [4] was “high affinity”.
